Results on 1 compound are retold here after article PMC5059758, “Structural characterization of antibiotic self-immunity tRNA synthetase in plant tumour biocontrol agent” (Nature Communications, 2016).

Assay [1] addresses LeuRSAt (leucyl-tRNA synthetase). To be noted: wt LeuRSAt, aminoacylation; read-out: Ki app; cited from earlier work.
Assay [2] addresses T1, AgnB2 Triple mutant + LS domain (Agrobacterium radiobacter, UniProt B9JQP8, A102N/DEL566-572/Q573M/T42P, form not given).
T1 sequence (B9JQP8 1-814 T42P/A102N/Q573M/DEL566-572): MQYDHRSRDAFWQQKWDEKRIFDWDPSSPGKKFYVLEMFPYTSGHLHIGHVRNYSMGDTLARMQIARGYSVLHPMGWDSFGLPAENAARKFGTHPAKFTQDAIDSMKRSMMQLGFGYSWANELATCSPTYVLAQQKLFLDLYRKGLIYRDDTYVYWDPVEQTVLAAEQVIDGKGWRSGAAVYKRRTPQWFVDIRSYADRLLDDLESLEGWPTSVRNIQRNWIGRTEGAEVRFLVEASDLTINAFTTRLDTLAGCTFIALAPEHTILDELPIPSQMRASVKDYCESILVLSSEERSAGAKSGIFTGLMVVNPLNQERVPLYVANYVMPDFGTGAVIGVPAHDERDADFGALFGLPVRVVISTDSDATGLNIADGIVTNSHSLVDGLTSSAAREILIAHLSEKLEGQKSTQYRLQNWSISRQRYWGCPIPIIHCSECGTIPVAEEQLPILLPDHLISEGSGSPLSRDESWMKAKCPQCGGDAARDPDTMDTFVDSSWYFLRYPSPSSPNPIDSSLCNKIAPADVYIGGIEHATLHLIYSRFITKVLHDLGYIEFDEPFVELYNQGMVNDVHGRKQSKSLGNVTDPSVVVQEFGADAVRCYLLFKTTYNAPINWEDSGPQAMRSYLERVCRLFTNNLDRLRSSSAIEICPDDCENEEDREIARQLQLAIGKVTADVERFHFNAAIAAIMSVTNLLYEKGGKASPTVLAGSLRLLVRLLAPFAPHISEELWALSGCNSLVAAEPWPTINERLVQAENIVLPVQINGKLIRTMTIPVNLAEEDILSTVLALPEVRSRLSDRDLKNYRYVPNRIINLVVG
T1 sequence (Q8UBV2 585-631 partner): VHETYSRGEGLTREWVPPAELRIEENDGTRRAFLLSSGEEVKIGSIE
Put plainly: Isothermal titration calorimetry, AgnB2 Triple mutant + LS domain. In kind it is binding, Agrobacterium radiobacter K84. To be noted: ITC, enzyme alone. From the text: The LS domain of LeuRSAt (141 bp) was inserted into AgnB2 (replacing the region between amino acid no. 566 and 572 with the LS domain)[37] To obtain this, the forward PCR primer was designed to contain the region of AgnB2 (∼25 bp) preceding the LS domain insertion followed by the first 25 bases of the LS domain (5′–3′). Similarly, the reverse primer was designed so as to include the last 25 bp of the LS domain (3′–5′) and the gene sequence of AgnB2 after the LS domain insertion. An extension reaction was carried out to obtain mega primers, (forward and reverse) encoding the entire LS domain (of LeuRSAt) flanked by the sequence of AgnB2 on both sides using the protocol by Wang and Malcolm[42]. DpnI digestion was then carried out to remove the wt template. The resultant mega primer was gel purified using the Qiaex II gel extraction kit (Qiagen) to be used in the second step. […]
Typically, about 4–8 μM active protein solution and a 10-fold higher ligand concentration were prepared in buffer containing 50 mM HEPES (pH 7.4), 20 mM KCl 10 mM MgCl2 and 1 mM β-ME. […] The data was then analyzed using Origin software (version 7) and fitted to a one-site or a two-site binding model to obtain the binding affinity (Kd), stoichiometry (N) and enthalpy (ΔH) for each complex.
A general note: Isothermal titration calorimetry measures the heat released or taken up as one component is titrated into another.

Assay [3] has as its system AgnB2 Triple (T42P/A102N/Q573M). Put plainly: Aminoacylation assay, AgnB2 Triple mutant. Type of assay: biochemical, Agrobacterium radiobacter K84. The conditions noted are these: 4 nM enzyme, 0.63 mM ATP, 28 °C, pH 7.4.
Experimental: Aminoacylation activities of AgnB2, LeuRSAt and their mutants were measured in 50 mM HEPES buffer (pH 7.4) containing 20 mM KCl, 25 mM MgCl2, 25 mM β-ME, 4 mM ATP, 500 μM [3,4,5-^3H] L-leucine (20 μCi/mmole), 5 μg/ml inorganic pyrophosphatase, 1 μM BSA, 10 μM of active in vitro transcribed tRNA^Leu and enzymes in the range of 2–8 nM. Reactions were pre-incubated with or without substrate and/or inhibitor and then carried out at 28 °C (37 °C-LeuRSHp). Aliquots of the reaction (5–10 μl) were quenched on 3 mM filter pads (Whatman, GE Healthcare) presoaked with 5% trichloroacetic acid (TCA). The pads were washed thrice with 5% TCA and 90% ethanol at 4 °C and then dried. The amount of Leu-tRNA^Leu was then quantified using scintillation counting. Each reaction was performed in triplicate and analyzed using Kaleidagraph (for Km and kcat determinations) or GraphPad Prism software (for IC50 determination).

As for `CC(C)[C@@H](O)[C@H](O)C(=O)NP(=O)(O)OC[C@@H]1C[C@H](O)[C@H](n2cnc3c(N)ncnc32)O1` [TM84], the Ki in assay [1] is 0.3 ± 0.1 nM. The “increase in TM84 binding alone compared with wt AgnB2” value in assay [2] was “fourfold”. The same compound returned an activity remaining in assay [3] of 13%.
